Data on one compound can be found in patent US11332467B2, “Solid state forms of palbociclib dimesylate” (PLANTEX LTD., priority 2016, dated 2022).

This series in a line: Specific surface area (SSA), BET nitrogen adsorption. As to conditions: 7 point BET in the range 0.05-0.20 P/Po, triplicate determination, Palbociclib Form A obtained by Example 6. In kind it is physicochemical. The protocol: Specific Surface Area (SSA) Method
SSA measurement based on BET-nitrogen adsorption were carried out using a Micromeritics TriStar II Plus 3030 specific surface area analyzer together with Micromeritics VacPrep 061 degassing station.
Software version: Microactive for TriStar II Plus v 2.03
Sample tube: ½″ round bottom cell with glass filler rods
Sample masses*: Approximately % full cell
Sample preparation: VacPrep 061, nitrogen stream
Out gassing conditions: 16 hrs at 25° C. under vacuum
Isothermal collection points: 11 point BET in the range 0.05-0.30 P/Po
Isothermal data analysis range: 7 point BET in the range 0.05-0.20 P/Po
Outgas test duration: 180 s
Equilibration interval: 10 s
Equilibration timeout: 600 s
Calculations and Reporting: The specific surface area was reported in the range 0.05-0.20 P/Po using 7 point BET from a triplicate determination.

Take `CC(=O)c1c(C)c2cnc(Nc3ccc(N4CCNCC4)cn3)nc2n(C2CCCC2)c1=O` [Palbociclib, 6-Acetyl-8-cyclopentyl-5-methyl-2-[[5-(1-piperazinyl)-2-pyridinyl]amino]pyrido[2,3-d]pyrimidin-7(8H)-one]: the “SSA (specific surface area)” value was 4.9 m^2/g.
